According to US9169254B2, “Spiroimidazolone derivative” (Chugai Seiyaku Kabushiki Kaisha, priority 2009, dated 2015):

biological target: T1, human PTH1 receptor (Homo sapiens, UniProt Q03431); experiment: In vitro cAMP signal activity in HKRK-B7 cells (LLC-PK1 cells overexpressing the human PTH1 receptor); format: cell-based; conditions: HKRK-B7 cells; compound at 1×10^−3 M; cAMP produced as percentage of that produced by hPTH(1-34) at 100 nM
T1 sequence (Q03431 27-593): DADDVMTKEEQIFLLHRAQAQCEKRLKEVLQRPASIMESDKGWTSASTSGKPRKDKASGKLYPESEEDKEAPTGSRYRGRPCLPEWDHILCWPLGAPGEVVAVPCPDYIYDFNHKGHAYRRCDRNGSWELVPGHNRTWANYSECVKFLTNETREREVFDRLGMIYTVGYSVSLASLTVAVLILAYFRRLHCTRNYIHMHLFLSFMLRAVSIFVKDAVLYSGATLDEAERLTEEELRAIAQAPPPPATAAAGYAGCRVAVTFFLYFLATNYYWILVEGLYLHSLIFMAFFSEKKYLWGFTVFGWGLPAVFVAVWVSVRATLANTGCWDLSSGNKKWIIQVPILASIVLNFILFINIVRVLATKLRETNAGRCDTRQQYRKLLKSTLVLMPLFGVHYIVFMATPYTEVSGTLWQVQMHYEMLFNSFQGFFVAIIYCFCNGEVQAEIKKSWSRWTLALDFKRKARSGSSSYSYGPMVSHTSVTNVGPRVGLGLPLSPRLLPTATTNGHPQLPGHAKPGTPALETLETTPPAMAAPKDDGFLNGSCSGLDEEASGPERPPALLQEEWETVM

Row | Structure (SMILES) | cAMP production activity (%)
1 | Cc1cc(S(=O)(=O)Nc2cccnc2)ccc1CCS(=O)(=O)N1CCC2(CC1)N=C(c1cccc(C(F)(F)F)c1)NC2=O [Compound 294, 3-methyl-4-{2-[4-oxo-2-(3-trifluoromethyl-phenyl)-1,3,8-triaza-spiro[4.5]dec-1-ene-8-sulfonyl]-ethyl}-N-pyridin-3-yl-benzenesulfonamide] | 106
2 | Cc1cc(OCCCN(C)C)ccc1CCS(=O)(=O)N1CCC2(CC1)N=C(c1cccc(OC(F)(F)F)c1)NC2=O [Compound 295, 8-{2-[4-(3-dimethylamino-propoxy)-2-methyl-phenyl]-ethanesulfonyl}-2-(3-trifluoromethoxy-phenyl)-1,3,8-triaza-spiro[4.5]dec-1-en-4-one] | 95
3 | Cc1cc(N2C[C@H](CO)OC2=O)ccc1CCS(=O)(=O)N1CCC2(CC1)N=C(c1cccc(C(F)(F)F)c1)NC2=O [Compound 296, 8-{2-[4-((R)-5-hydroxymethyl-2-oxo-oxazolidin-3-yl)-2-methyl-phenyl]-ethanesulfonyl}-2-(3-trifluoromethyl-phenyl)-1,3,8-triaza-spiro[4.5]dec-1-en-4-one] | 65
4 | Cc1cc(N2C[C@H](O)CC2=O)ccc1CCS(=O)(=O)N1CCC2(CC1)N=C(c1cccc(C(F)(F)F)c1)NC2=O [Compound 297, 8-{2-[4-((R)-4-hydroxy-2-oxo-pyrrolidin-1-yl)-2-methyl-phenyl]-ethanesulfonyl}-2-(3-trifluoromethyl-phenyl)-1,3,8-triaza-spiro[4.5]dec-1-en-4-one] | 91
5 | CC(=O)Nc1ccc(CCS(=O)(=O)N2CCC3(CC2)N=C(c2cccc(C(F)(F)F)c2)NC3=O)c(C)c1 [Compound 298, N-(3-methyl-4-{2-[4-oxo-2-(3-trifluoromethyl-phenyl)-1,3,8-triaza-spiro[4.5]dec-1-ene-8-sulfonyl]-ethyl}-phenyl)-acetamide] | 63
6 | CC(=O)N(C)c1ccc(CCS(=O)(=O)N2CCC3(CC2)N=C(c2cccc(OC(F)(F)F)c2)NC3=O)c(C)c1 [Compound 299, N-methyl-N-(3-methyl-4-{2-[4-oxo-2-(3-trifluoromethoxy-phenyl)-1,3,8-triaza-spiro[4.5]dec-1-ene-8-sulfonyl]-ethyl}-phenyl)-acetamide] | 83
7 | Cc1cc(N(C)C(=O)CO)ccc1CCS(=O)(=O)N1CCC2(CC1)N=C(c1cccc(OC(F)(F)F)c1)NC2=O [Compound 300, 2-hydroxy-N-methyl-N-(3-methyl-4-{2-[4-oxo-2-(3-trifluoromethoxy-phenyl)-1,3,8-triaza-spiro[4.5]dec-1-ene-8-sulfonyl]-ethyl}-phenyl)-acetamide] | 73
8 | Cc1cc(N(C)C(N)=O)ccc1CCS(=O)(=O)N1CCC2(CC1)N=C(c1cccc(OC(F)(F)F)c1)NC2=O [Compound 301, 1-methyl-1-(3-methyl-4-{2-[4-oxo-2-(3-trifluoromethoxy-phenyl)-1,3,8-triaza-spiro[4.5]dec-1-ene-8-sulfonyl]-ethyl}-phenyl)-urea] | 72
9 | CC(=O)Nc1cc(C)c(CCS(=O)(=O)N2CCC3(CC2)N=C(C2CCCCC2)NC3=O)c(C)c1 [Compound 302, N-{4-[2-(2-cyclohexyl-4-oxo-1,3,8-triaza-spiro[4.5]dec-1-ene-8-sulfonyl)-ethyl]-3,5-dimethyl-phenyl}-acetamide] | 95
10 | O=C1NC(c2cccc(OC(F)(F)F)c2)=NC12CCN(S(=O)(=O)CCc1ccccc1C(F)(F)F)CC2 [Compound 304, 2-(3-trifluoromethoxy-phenyl)-8-[2-(2-trifluoromethyl-phenyl)-ethanesulfonyl]-1,3,8-triaza-spiro[4.5]dec-1-en-4-one] | 47
11 | O=C1NC(c2cccc(OC(F)(F)F)c2)=NC12CCN(S(=O)(=O)CCc1cccc3[nH]ccc13)CC2 [Compound 305, 8-[2-(1H-indol-4-yl)-ethanesulfonyl]-2-(3-trifluoromethoxy-phenyl)-1,3,8-triaza-spiro[4.5]dec-1-en-4-one] | 73
12 | O=C1NC(c2cccc(OC(F)(F)F)c2)=NC12CCN(S(=O)(=O)CCc1cccc3c1OC(F)(F)O3)CC2 [Compound 307, 8-[2-(2,2-difluoro-benzo[1,3]dioxol-4-yl)-ethanesulfonyl]-2-(3-trifluoromethoxy-phenyl)-1,3,8-triaza-spiro[4.5]dec-1-en-4-one] | 58
13 | Cn1ccc2cccc(CCS(=O)(=O)N3CCC4(CC3)N=C(c3cccc(OC(F)(F)F)c3)NC4=O)c21 [Compound 308, 8-[2-(1-methyl-1H-indol-7-yl)-ethanesulfonyl]-2-(3-trifluoromethoxy-phenyl)-1,3,8-triaza-spiro[4.5]dec-1-en-4-one] | 72
14 | CC1CCC(C2=NC3(CCN(S(=O)(=O)CCCc4cccc5[nH]ccc45)CC3)C(=O)N2)CC1 (stereo not shown) [Compound 311, 8-[3-(1H-indol-4-yl)-propane-1-sulfonyl]-2-(4-methyl-cyclohexyl)-1,3,8-triaza-spiro[4.5]dec-1-en-4-one] | 67
15 | Cc1cc(NC[C@H](O)CO)ccc1CCS(=O)(=O)N1CCC2(CC1)N=C(C1CCCCC1)NC2=O [Compound 321, 2-Cyclohexyl-8-{2-[4-((S)-2,3-dihydroxy-propylamino)-2-methyl-phenyl]-ethanesulfonyl}-1,3,8-triaza-spiro[4.5]dec-1-en-4-one] | 55

Now from value to compound:

Row | cAMP production activity (%) | Structure (SMILES)
16 | 76 | O=C1NC(C2CCCCC2)=NC12CCN(S(=O)(=O)CCc1cccc3[nH]ccc13)CC2 [Compound 303, 2-Cyclohexyl-8-[2-(1H-indol-4-yl)-ethanesulfonyl]-1,3,8-triaza-spiro[4.5]dec-1-en-4-one]
17 | 45 | CC1CCC(C2=NC3(CCN(S(=O)(=O)CCc4cccc5[nH]ccc45)CC3)C(=O)N2)CC1 (stereo not shown) [Compound 306, 8-[2-(1H-indol-4-yl)-ethanesulfonyl]-2-(4-methyl-cyclohexyl)-1,3,8-triaza-spiro[4.5]dec-1-en-4-one]
18 | 72 | O=C1NC(C2CCCCC2)=NC12CCN(S(=O)(=O)CCc1cccc3c1ccn3C[C@H](O)CO)CC2 [Compound 309, 2-cyclohexyl-8-{2-[1-((S)-2,3-dihydroxy-propyl)-1H-indol-4-yl]-ethanesulfonyl}-1,3,8-triaza-spiro[4.5]dec-1-en-4-one]
19 | 76 | CN(C)C(=O)n1ccc2c(CCS(=O)(=O)N3CCC4(CC3)N=C(C3CCCCC3)NC4=O)cccc21 [Compound 310, 4-[2-(2-cyclohexyl-4-oxo-1,3,8-triaza-spiro[4.5]dec-1-ene-8-sulfonyl)-ethyl]-indole-1-carboxylic acid dimethylamide]
20 | 49 | CS(=O)(=O)n1ccc2c(CCS(=O)(=O)N3CCC4(CC3)N=C(C3CCCCC3)NC4=O)cccc21 [Compound 312, 2-cyclohexyl-8-[2-(1-methanesulfonyl-1H-indol-4-yl)-ethanesulfonyl]-1,3,8-triaza-spiro[4.5]dec-1-en-4-one]
21 | 63 | CN(C)CCn1ccc2c(CCS(=O)(=O)N3CCC4(CC3)N=C(C3CCCCC3)NC4=O)cccc21 [Compound 313, 2-cyclohexyl-8-{2-[1-(2-dimethylamino-ethyl)-1H-indol-4-yl]-ethanesulfonyl}-1,3,8-triaza-spiro[4.5]dec-1-en-4-one]
22 | 68 | Nc1ccc(CCS(=O)(=O)N2CCC3(CC2)N=C(C2CCCCC2)NC3=O)c(C(F)(F)F)c1 [Compound 314, 8-[2-(4-amino-2-trifluoromethyl-phenyl)-ethanesulfonyl]-2-cyclohexyl-1,3,8-triaza-spiro[4.5]dec-1-en-4-one]
23 | 26 | O=C1NC(C2CCCCC2)=NC12CCN(S(=O)(=O)CCCc1cccc(C(F)(F)F)c1)CC2 [Compound 315, 2-cyclohexyl-8-[3-(3-trifluoromethyl-phenyl)-propane-1-sulfonyl]-1,3,8-triaza-spiro[4.5]dec-1-en-4-one]
24 | 20 | Cc1cccc(CCCS(=O)(=O)N2CCC3(CC2)N=C(C2CCCCC2)NC3=O)c1 [Compound 316, 2-cyclohexyl-8-(3-m-tolyl-propane-1-sulfonyl)-1,3,8-triaza-spiro[4.5]dec-1-en-4-one]
25 | 62 | O=C1NC(C2CCCCC2)=NC12CCN(S(=O)(=O)CCCc1cccc(O)c1)CC2 [Compound 317, 2-cyclohexyl-8-[3-(3-hydroxy-phenyl)-propane-1-sulfonyl]-1,3,8-triaza-spiro[4.5]dec-1-en-4-one]
26 | 52 | O=C1NC(C2CCCCC2)=NC12CCN(S(=O)(=O)CCCc1ccccc1O)CC2 [Compound 318, 2-cyclohexyl-8-[3-(2-hydroxy-phenyl)-propane-1-sulfonyl]-1,3,8-triaza-spiro[4.5]dec-1-en-4-one]
27 | 31 | O=C1NC(C2CCCCC2)=NC12CCN(S(=O)(=O)CCc1csc3ccccc13)CC2 [Compound 319, 8-(2-benzo[b]thiophen-3-yl-ethanesulfonyl)-2-cyclohexyl-1,3,8-triaza-spiro[4.5]dec-1-en-4-one]
28 | 33 | O=C1NC(C2CCCCC2)=NC12CCN(S(=O)(=O)CCc1cccc3cnccc13)CC2 [Compound 320, 2-cyclohexyl-8-(2-isoquinolin-5-yl-ethanesulfonyl)-1,3,8-triaza-spiro[4.5]dec-1-en-4-one]
